Experimental data: patent publication US7273848B2, “Apolipoprotein A-I agonists and their use to treat dyslipidemic disorders” (priority 1997, dated 2007)

Test system: HDL cholesterol
Experiment: HDL cholesterol in rabbits after injection of phospholipid/peptide complex
Type: in vivo, rabbit
Conditions: 10 mg/kg i.v. as phospholipid complex
Method: Small discoidal particles consisting of phospholipid (DPPC) and peptide 146 (SEQ ID NO:146) were prepared following the cholate dialysis method. The phospholipid was dissolved in chloroform and dried under a stream of nitrogen. The peptide was dissolved in buffer (saline) at a concentration of 1-2 mg/ml. The lipid film was redissolved in buffer containing cholate (43° C.) and the peptide solution was added at a 3-1 phospholipid/peptide ratio. The mixture was incubated overnight at 43° C. and then dialyzed at 43° C. (24 hr.), room temperature (24 hr.) and 4° C. (24 hr.), with three changes of buffer (large volumes) at temperature point. The complexes were filter sterilized (0.22μ) for injection and storage at 4° C.
Male New Zealand White rabbits (2.5-3 kg) were injected intravenously with a dose of phospholipid/peptide complex (8 mg/kg bodyweight peptide 146 (SEQ ID NO:146) or 10 mg/kg bodyweight ApoA-I, expressed as peptide or protein content) in a single bolus injection not exceeding 10-15 ml. The animals were slightly sedated before the manipulations. Blood samples (collected on EDTA) were taken before and 5, 15, 30, 60, 240 and 1440 minutes after injection. The hematocrit (Hct) was determined for each sample. Samples were aliquoted and stored at −20° C. before analysis.
Plasma Lipids. The total plasma cholesterol, plasma triglycerides and plasma phospholipids were determined enzymatically using commercially available assays according to the manufacturer's protocols (Boehringer Mannheim, Mannheim, Germany and Biomerieux, 69280, Marcy-l'étoile, France).
Lipoprotein Profiles. The plasma lipoprotein profiles of the fractions obtained after the separation of the plasma into its lipoprotein fractions were determined by spinning in a sucrose density gradient. The fractions were collected and in each individual fraction the phospholipid and cholesterol content was measured enzymatically.

Native ApoA-I: ApoA-I (isolated from human plasma), used as positive control; injected as phospholipid complex in rabbits
Increase in HDL Cholesterol (%) (5 min.): 19.3%
Increase in HDL Cholesterol (%) (15 min.): 16%
Increase in HDL Cholesterol (%) (60 min.): 15.8%
Increase in HDL Cholesterol (%) (240 min.): −24.1%
